Experimental data published in paper PMC9884089 (Journal of Medicinal Chemistry, 2023).

Tests used:
[1] = target: T1, TNKS2 (Homo sapiens, UniProt Q9H2K2); experiment: biochemical; conditions: read-out: TNKS2 IC50; > = less than 50% inhibition at highest concentration
T1 sequence (Q9H2K2 1-1166): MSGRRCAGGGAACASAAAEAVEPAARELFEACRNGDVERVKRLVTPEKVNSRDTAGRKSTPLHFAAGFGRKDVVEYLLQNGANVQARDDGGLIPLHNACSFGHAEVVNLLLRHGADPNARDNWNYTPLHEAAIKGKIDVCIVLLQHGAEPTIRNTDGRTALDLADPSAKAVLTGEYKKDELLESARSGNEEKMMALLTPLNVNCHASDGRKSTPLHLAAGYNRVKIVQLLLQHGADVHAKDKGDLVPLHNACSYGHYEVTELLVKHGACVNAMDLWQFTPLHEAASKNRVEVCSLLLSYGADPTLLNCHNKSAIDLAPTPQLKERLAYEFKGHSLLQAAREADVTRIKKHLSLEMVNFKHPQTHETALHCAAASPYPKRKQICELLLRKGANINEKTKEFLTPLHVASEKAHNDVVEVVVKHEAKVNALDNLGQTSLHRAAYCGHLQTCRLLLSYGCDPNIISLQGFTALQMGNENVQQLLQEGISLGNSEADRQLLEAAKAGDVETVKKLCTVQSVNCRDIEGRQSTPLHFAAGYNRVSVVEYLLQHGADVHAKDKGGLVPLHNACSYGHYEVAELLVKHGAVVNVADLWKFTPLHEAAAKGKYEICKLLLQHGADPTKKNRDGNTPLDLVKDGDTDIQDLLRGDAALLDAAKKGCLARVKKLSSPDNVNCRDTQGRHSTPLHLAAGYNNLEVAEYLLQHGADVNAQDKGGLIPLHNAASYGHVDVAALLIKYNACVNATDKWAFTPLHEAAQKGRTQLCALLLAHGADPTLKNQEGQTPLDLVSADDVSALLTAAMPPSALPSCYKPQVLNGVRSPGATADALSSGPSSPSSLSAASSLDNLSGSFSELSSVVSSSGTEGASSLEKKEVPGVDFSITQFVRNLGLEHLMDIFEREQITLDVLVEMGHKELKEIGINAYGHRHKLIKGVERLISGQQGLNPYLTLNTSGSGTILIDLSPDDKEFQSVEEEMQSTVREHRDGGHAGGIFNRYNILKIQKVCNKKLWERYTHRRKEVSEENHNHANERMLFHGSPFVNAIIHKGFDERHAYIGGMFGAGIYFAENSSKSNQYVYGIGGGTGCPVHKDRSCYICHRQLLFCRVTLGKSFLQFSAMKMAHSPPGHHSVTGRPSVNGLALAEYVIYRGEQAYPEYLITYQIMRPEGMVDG
Procedure: The proteins used in Tables 1–3 were produced as described earlier. Dockerin constructs to allow enhanced activity assays for mono-ARTs (Table 4) were produced in Escherichia coli with an N-terminal maltose binding protein (MBP) and a C-terminal dockerin domain from Hungateiclostridium thermocellum Cel48s as described recently.[47]
Inhibition experiments were performed using a homogenous assay measuring NAD+ consumption.[80]−[82] Reactions were carried out in quadruplicate, and IC50 curves were fitted using sigmoidal dose response curve (four variables) in GraphPad Prism version 8.02. […] Assay conditions for PARP2, TNKS2, PARP10, and PARP15 (Tables 1–3) were recently reported.[44] The conditions for the proximity-enhanced mono-ART assays (Table 4) were also reported recently.[47] PARP6 (400 nM) inhibition was measured using the standard buffer (50 mM sodium phosphate pH 7.0) for the enhanced activity assay using 500 nM NAD^+ and 18 h incubation in r.t..

[2] = system: HeLa Flp-In T-REx-PARP10 cells; experiment: PARP10 rescue assay (colony formation, Dox-induced PARP10 overexpression); format: cell-based, human; conditions: for EC50: Homo sapiens, HeLa, read-out: PARP10 rescue EC50; for Rescue of cells from PARP10-induced cell death: at 1 μM, colony formation
Procedure: HeLa Flp-In T-REx-PARP10 and -PARP10-G888W cells were grown in DMEM medium supplemented with 10% heat-inactivated fetal calf serum at 37 °C in 5% CO2.[92] For colony formation assays, 500 HeLa cells were seeded in 6-well culture plates. Once the cells adhered, protein expression was induced by adding 500 ng/mL Dox. […] The number of colonies was assessed using ImageJ. EC50 curves were fitted using three variables in GraphPad Prism version 8.02.

[3] = PAMPA, gastrointestinal tract (GI) permeability; format: in vitro ADME; conditions: phosphatidylcholine; for Papp at 5 h, 500 μM: pH 7.4, 5 h
Procedure: Each “donor solution” was prepared from a solution of the appropriate compound (DMSO, 1 mM) diluted with phosphate buffer (pH 7.4, 0.025 M) up to a final concentration of 500 μM. […] Donor solution (150 μL) was added to each well of the filter plate and to each well of the acceptor plate was added 300 μL of solution (50% DMSO in phosphate buffer). The sandwich plate was assembled and incubated for 5 h at r.t. After the incubation time, the plates were separated, and the samples were taken from both the donor and acceptor wells, and the amount of compound was measured by UV/LC–MS. All compounds were tested in three independent experiments. […] Drug concentration is estimated by using the peak area integration. Membrane retentions (%) were calculated according to the following equation [drawing 2] where r is the ratio between drug concentration in the acceptor and equilibrium concentration and D, A, and Eq represent drug concentration in the donor, acceptor, and equilibrium solution, respectively.

[4] = Stability in human plasma; format: in vitro ADME; conditions: 37 °C
Procedure: HEPES buffer (0.9 mL, 25 mM, 140 mM NaCl, pH 7.4), and 0.1 mL of each compound in DMSO (2.0 mM). The solution was mixed in a test tube that was incubated at 37 °C. […] The supernatant was removed and analyzed by UV/LC–MS.

[5] = Stability in MeOH; format: physicochemical; conditions: 500 μM
Procedure: For the stability measurements in polar solvents, each compound was dissolved at room temperature in MeOH or PBS (0.025 M, pH 7.4) up to a final concentration of 500 μM.

[6] = target: T2, PARP2 (Homo sapiens, UniProt Q9UGN5); experiment: biochemical; format: biochemical; conditions: > = less than 50% inhibition at highest concentration; ≫ = no inhibition; read-out: PARP2 IC50
T2 construct: made in house
T2 sequence (Q9UGN5 whole entry): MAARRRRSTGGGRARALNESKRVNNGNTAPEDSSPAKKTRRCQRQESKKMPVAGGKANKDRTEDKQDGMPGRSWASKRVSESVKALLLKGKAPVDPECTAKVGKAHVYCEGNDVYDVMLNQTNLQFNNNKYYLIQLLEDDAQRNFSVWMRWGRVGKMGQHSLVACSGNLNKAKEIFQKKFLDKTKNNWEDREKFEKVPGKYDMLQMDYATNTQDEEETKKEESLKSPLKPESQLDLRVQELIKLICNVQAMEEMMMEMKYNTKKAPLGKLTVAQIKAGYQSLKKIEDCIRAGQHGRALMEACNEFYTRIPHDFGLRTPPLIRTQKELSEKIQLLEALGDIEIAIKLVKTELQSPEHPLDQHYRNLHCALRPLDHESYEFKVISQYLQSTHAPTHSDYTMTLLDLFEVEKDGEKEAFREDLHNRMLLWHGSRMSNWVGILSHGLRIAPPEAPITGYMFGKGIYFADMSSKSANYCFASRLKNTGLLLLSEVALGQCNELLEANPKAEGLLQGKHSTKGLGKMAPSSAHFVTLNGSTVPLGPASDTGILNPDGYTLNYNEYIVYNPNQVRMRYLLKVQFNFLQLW

Structure (SMILES)	IC50 [1]	EC50 [2]	Rescue of cells from PARP10-induced cell death [2]	GI RM % (retention membrane percentage) [3]	Papp at 5 h, 500 μM [3]	stab in human plasma [4]	stab. in MeOH [5]	IC50 [6]
Cc1ccc2c(c1)sc1nnc(N)n12 [Compound 21, 7-Methyl[1,2,4]triazolo[3,4-b][1,3]benzothiazol-3-amine]	5.7 µM	0.5 µM	efficiently rescued cells from PARP10-induced cell death	1.8%	0.281 ×10⁻⁶ cm/s	>24 h	>24 h	–
COc1ccc(OC)c2c1sc1nnc(N)n12 [Compound 27, 5,8-Dimethoxy[1,2,4]triazolo[3,4-b][1,3]benzothiazol-3-amine]	10 µM	0.15 µM	efficiently rescued cells from PARP10-induced cell death	1.3%	0.144 ×10⁻⁶ cm/s	>24 h	>24 h	10 µM
